Here are results for one molecule from ChEMBL document CHEMBL4359918, “Discovery of tissue selective liver X receptor agonists for the treatment of atherosclerosis without causing hepatic lipogenesis” (Eur J Med Chem, 2019).

Data set [1] concerns Mus musculus. In words: Anti-atherosclerotic activity in high fat diet-induced C57BL/6 mouse model of hypercholesterolemia assessed as decrease in sREBP-1c mRNA expression in liver at 10 to 40 mg/kg, po administered for 12 weeks by RT-qPCR analysis. It is filed as functional, organism-based.
For data set [2], the system named is Mus musculus. In words: Anti-atherosclerotic activity in high fat diet-induced C57BL/6 mouse model of hypercholesterolemia assessed as increase in CYP7A1 mRNA expression in liver at 10 to 40 mg/kg, po administered for 12 weeks by RT-qPCR analysis. The format is functional, organism-based.
Data set [3] deals with HepG2. Kind of data set: Lipid lowering activity in human HepG2 cells assessed as decrease in OA-induced TG accumulation at 10 uM incubated for 24 hrs. It is filed as functional, cell-based.
In data set [4] the test system is PBMC. In words: Anti-atherosclerotic activity in C57BL/6 mouse PBMC assessed as inhibition of ox-LDL induced lipid accumulation at 10 uM incubated for 48 hrs by ORO staining based microscopic analysis. It is filed as functional, cell-based.
Data set [5] relates to RAW264.7. Kind of data set: Inhibition of macrophage foam cell formation in mouse RAW264.7 cells assessed as reduction in ox-LDL induced total cholesterol level at 10 uM measured after 48 hrs. The format is functional, cell-based.
For data set [6], the system named is Mus musculus. In words: Anti-atherosclerotic activity in high fat diet-induced C57BL/6 mouse model of hypercholesterolemia assessed as decrease in SCD1 mRNA expression in liver at 10 to 40 mg/kg, po administered for 12 weeks by RT-qPCR analysis. It is filed as functional, organism-based. (Real-time PCR tracks product formation cycle by cycle.)
A short description of data set [7]: Agonist activity at LXR in mouse 3T3L1 preadipocytes assessed as increase in ABCA1 mRNA expression at 10 uM by qPCR analysis. It is filed as cell-based.
Data set [8] is described as follows: Agonist activity at LXR in mouse RAW264.7 cells assessed as increase in sREBP-1c mRNA expression at 10 uM incubated for 48 hrs by qPCR analysis. It is filed as cell-based. Particulars: raw264.7, 48 h.
Data set [9] relates to Mus musculus. Kind of data set: Anti-atherosclerotic activity in high fat diet-induced C57BL/6 mouse model of hypercholesterolemia assessed as reduction in ALT level at 10 to 40 mg/kg, po administered for 12 weeks. The format is functional, organism-based.
Data set [10] is described as follows: Selectivity index, ratio of compound effect for agonist activity at human LXRalpha to compound effect for agonist activity at […].
The test system of data set [11] is Mus musculus. Kind of data set: Anti-atherosclerotic activity in high fat diet-induced C57BL/6 mouse model of hypercholesterolemia assessed as increase in ABCG8 mRNA expression in ileum at 10 to 40 mg/kg, po administered for 12 weeks by RT-qPCR analysis. It is filed as functional, organism-based.
Data set [12] is filed under the species Mus musculus. Kind of data set: Agonist activity at LXR in C57BL/6 mouse PBMC assessed as increase in ABCA1 mRNA expression at 10 uM incubated for 48 hrs by qPCR analysis.
Data set [13] concerns Mus musculus. Kind of data set: Anti-atherosclerotic activity in high fat diet-induced C57BL/6 mouse model of hypercholesterolemia assessed as reduction in serum total cholesterol level at 10 to 40 mg/kg, po administered for 12 weeks. It is filed as functional, organism-based.
In data set [14] the test system is 3T3-L1. Kind of data set: Cytotoxicity against mouse 3T3L1 preadipocytes assessed as reduction in cell viability at 2 to 50 uM incubated for 24 hrs by MTT assay. As to conditions: 3t3-l1, 24 h. The format is cell-based.
The target in data set [15] is T1, LXRalpha (Oxysterols receptor LXR-alpha) (Homo sapiens, UniProt Q13133).
T1 sequence (Q13133 whole entry): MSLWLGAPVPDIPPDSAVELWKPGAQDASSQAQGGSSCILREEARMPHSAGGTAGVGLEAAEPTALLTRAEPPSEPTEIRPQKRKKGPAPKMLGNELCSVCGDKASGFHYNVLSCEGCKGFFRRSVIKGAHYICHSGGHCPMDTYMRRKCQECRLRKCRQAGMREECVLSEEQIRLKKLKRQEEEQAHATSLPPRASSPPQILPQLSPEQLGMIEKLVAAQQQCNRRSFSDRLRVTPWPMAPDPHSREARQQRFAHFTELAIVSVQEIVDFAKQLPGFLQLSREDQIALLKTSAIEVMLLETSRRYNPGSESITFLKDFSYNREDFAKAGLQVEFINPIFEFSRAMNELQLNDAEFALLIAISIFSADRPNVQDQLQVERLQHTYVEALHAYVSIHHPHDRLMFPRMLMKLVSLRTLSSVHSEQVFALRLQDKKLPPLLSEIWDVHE
Kind of data set: Agonist activity at human LXRalpha transfected in HEK293T cells at 10 uM incubated for 20 hrs by luciferase reporter gene assay relative to control. It is filed as cell-based. As to conditions: HEK293T cells transfected with human LXRalpha, read-out: FC. On the technique in general: In a reporter assay the amount or activity of a reporter protein is the signal.

Data set [16] relates to Mus musculus. In words: Induction of hepatic steatosis in C57BL/6 mouse assessed as accumulation of serum triglyceride level at 50 mg/kg/day, ig administered for 7 days. The format is organism-based. As to conditions: in vivo, po, 168 h.
The subject of data set [17] is Mus musculus. Kind of data set: Anti-atherosclerotic activity in high fat diet-induced C57BL/6 mouse model of hypercholesterolemia assessed as decrease in ACC mRNA expression in liver at 10 to 40 mg/kg, po administered for 12 weeks by RT-qPCR analysis. It is filed as functional, organism-based.

Calls of active or inactive are those of the source. The calls are words filed in the database; no cut-off is given here.

Turning to `CC(C)C(=O)CC[C@@H](C)[C@H]1CC[C@H]2[C@@H]3C[C@H](O)[C@H]4C[C@H](O)CC[C@]4(C)[C@H]3CC[C@]12C`, the result in [1], in data set [2], in data set [3], in [6], in data set [9] and in [11] was Active. In addition, the result in data set [12], in data set [13] and in data set [17] was Active. For the same molecule, the inhibition result in data set [4] and in [5] was “Active” each time. Besides, the Activity entry was “Active” in [7], “Not Active” in [8], “Non-Toxic” in data set [14] and “Non-Toxic” in data set [16]. In addition, the Ratio in data set [10] was 1. The fold induction at 20 h, 10 µM in [15] amounted to 4.27.
